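A five-concentration, 48-hour dose response in 96-well plates underlies each endpoint, interpolated linearly between surrounding concentrations. GI50 = concentration required for 50% inhibition of growth. Definition used: TGI = concentration required for complete inhibition of growth.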
How the values were obtained:
Experiment in all cases: NCI tumour cell line growth inhibition, 48 h
HCT-15 colon = system: HCT-15 colon
U251 CNS = system: U251 CNS
RPMI-8226 leukemia = system: RPMI-8226 leukemia
SK-OV-3 ovarian = system: SK-OV-3 ovarian
NCI-H23 lung = system: NCI-H23 lung
KM12 colon = system: KM12 colon
SW-620 colon = system: SW-620 colon
HS 578T breast = system: HS 578T breast
EKVX NSCLC = system: EKVX NSCLC
CAKI-1 renal = system: CAKI-1 renal
UACC-62 melanoma = system: UACC-62 melanoma
COLO 205 colon = system: COLO 205 colon
HL-60(TB) leukemia = system: HL-60(TB) leukemia
A498 renal = system: A498 renal
CCRF-CEM leukemia = system: CCRF-CEM leukemia
MDA-MB-231 breast = system: MDA-MB-231 breast
SF-295 CNS = system: SF-295 CNS
PC-3 prostate = system: PC-3 prostate
NCI-H522 lung = system: NCI-H522 lung
786-0 renal = system: 786-0 renal
MOLT-4 leukemia = system: MOLT-4 leukemia
MDA-MB-435 = system: MDA-MB-435
M14 melanoma = system: M14 melanoma
OVCAR-8 ovarian = system: OVCAR-8 ovarian
OVCAR-3 ovarian = system: OVCAR-3 ovarian
UACC-257 melanoma = system: UACC-257 melanoma
NCI-H460 lung = system: NCI-H460 lung
SR leukemia = system: SR leukemia
NCI-H226 lung = system: NCI-H226 lung
SN12C renal = system: SN12C renal
HCT-116 colon = system: HCT-116 colon
SNB-19 CNS = system: SNB-19 CNS
SF-539 CNS = system: SF-539 CNS
NCI/ADR-RES ovarian = system: NCI/ADR-RES ovarian
HT29 colon = system: HT29 colon
HOP-62 NSCLC = system: HOP-62 NSCLC
SK-MEL-28 melanoma = system: SK-MEL-28 melanoma
SNB-75 CNS = system: SNB-75 CNS
SF-268 CNS = system: SF-268 CNS
ACHN renal = system: ACHN renal
OVCAR-5 ovarian = system: OVCAR-5 ovarian
T-47D breast = system: T-47D breast
MALME-3M melanoma = system: MALME-3M melanoma
RXF 393 renal = system: RXF 393 renal
LOX IMVI melanoma = system: LOX IMVI melanoma
OVCAR-4 ovarian = system: OVCAR-4 ovarian
MCF7 breast = system: MCF7 breast
HCC-2998 colon = system: HCC-2998 colon
SK-MEL-5 melanoma = system: SK-MEL-5 melanoma
IGROV1 ovarian = system: IGROV1 ovarian
K-562 leukemia = system: K-562 leukemia
HOP-92 NSCLC = system: HOP-92 NSCLC
DU-145 prostate = system: DU-145 prostate
BT-549 breast = system: BT-549 breast
SK-MEL-2 melanoma = system: SK-MEL-2 melanoma
A549 NSCLC = system: A549 NSCLC
TK-10 renal = system: TK-10 renal
UO-31 renal = system: UO-31 renal

SMILES: COc1ccccc1/C=C/C(=O)c1ccc(Nc2nc(Nc3ccc(F)cc3)nc(Nc3ccc(F)cc3)n2)cc1
- GI50 (HCT-15 colon): 6.57 µM
- TGI (HCT-15 colon): > 100 µM
- GI50 (U251 CNS): 9.8 µM
- TGI (U251 CNS): > 100 µM
- GI50 (RPMI-8226 leukemia): 3.03 µM
- TGI (RPMI-8226 leukemia): 16.3 µM
- GI50 (SK-OV-3 ovarian): 69.7 µM
- TGI (SK-OV-3 ovarian): > 100 µM
- GI50 (NCI-H23 lung): 18.9 µM
- TGI (NCI-H23 lung): > 100 µM
- GI50 (KM12 colon): 7.67 µM
- TGI (KM12 colon): > 100 µM
- GI50 (SW-620 colon): 6.49 µM
- TGI (SW-620 colon): > 100 µM
- GI50 (HS 578T breast): 8.29 µM
- TGI (HS 578T breast): 71.1 µM
- GI50 (EKVX NSCLC): 38.1 µM
- TGI (EKVX NSCLC): > 100 µM
- GI50 (CAKI-1 renal): > 100 µM
- TGI (CAKI-1 renal): > 100 µM
- GI50 (UACC-62 melanoma): 55.5 µM
- TGI (UACC-62 melanoma): > 100 µM
- GI50 (COLO 205 colon): 2550 nM
- TGI (COLO 205 colon): 55.1 µM
- GI50 (HL-60(TB) leukemia): 3.77 µM
- TGI (HL-60(TB) leukemia): > 100 µM
- GI50 (A498 renal): 13.3 µM
- TGI (A498 renal): 47.2 µM
- GI50 (CCRF-CEM leukemia): 5.6 µM
- TGI (CCRF-CEM leukemia): > 100 µM
- GI50 (MDA-MB-231 breast): 25.8 µM
- TGI (MDA-MB-231 breast): > 100 µM
- GI50 (SF-295 CNS): 14.4 µM
- TGI (SF-295 CNS): 98.5 µM
- GI50 (PC-3 prostate): 5.49 µM
- TGI (PC-3 prostate): > 100 µM
- GI50 (NCI-H522 lung): 23 µM
- TGI (NCI-H522 lung): > 100 µM
- GI50 (786-0 renal): 2850 nM
- TGI (786-0 renal): 14.9 µM
- GI50 (MOLT-4 leukemia): 6.13 µM
- TGI (MOLT-4 leukemia): 97.8 µM
- GI50 (MDA-MB-435): 19.4 µM
- TGI (MDA-MB-435): 90.7 µM
- GI50 (M14 melanoma): 25.5 µM
- TGI (M14 melanoma): 86.7 µM
- GI50 (OVCAR-8 ovarian): 9.4 µM
- TGI (OVCAR-8 ovarian): > 100 µM
- GI50 (OVCAR-3 ovarian): 22.2 µM
- TGI (OVCAR-3 ovarian): > 100 µM
- GI50 (UACC-257 melanoma): 22 µM
- TGI (UACC-257 melanoma): 66.6 µM
- GI50 (NCI-H460 lung): 9.38 µM
- TGI (NCI-H460 lung): > 100 µM
- GI50 (SR leukemia): 4.34 µM
- TGI (SR leukemia): > 100 µM
- GI50 (NCI-H226 lung): 6.61 µM
- TGI (NCI-H226 lung): > 100 µM
- GI50 (SN12C renal): 51.2 µM
- TGI (SN12C renal): > 100 µM
- GI50 (HCT-116 colon): 4.58 µM
- TGI (HCT-116 colon): > 100 µM
- GI50 (SNB-19 CNS): 74.2 µM
- TGI (SNB-19 CNS): > 100 µM
- GI50 (SF-539 CNS): 1730 nM
- TGI (SF-539 CNS): 17.6 µM
- GI50 (NCI/ADR-RES ovarian): 13 µM
- TGI (NCI/ADR-RES ovarian): > 100 µM
- GI50 (HT29 colon): 15.8 µM
- TGI (HT29 colon): > 100 µM
- GI50 (HOP-62 NSCLC): 16.3 µM
- TGI (HOP-62 NSCLC): 77.6 µM
- GI50 (SK-MEL-28 melanoma): 33.6 µM
- TGI (SK-MEL-28 melanoma): > 100 µM
- GI50 (SNB-75 CNS): 50.6 µM
- TGI (SNB-75 CNS): > 100 µM
- GI50 (SF-268 CNS): 45.7 µM
- TGI (SF-268 CNS): > 100 µM
- GI50 (ACHN renal): 25.2 µM
- TGI (ACHN renal): > 100 µM
- GI50 (OVCAR-5 ovarian): 51.9 µM
- TGI (OVCAR-5 ovarian): > 100 µM
- GI50 (T-47D breast): 8.01 µM
- TGI (T-47D breast): > 100 µM
- GI50 (MALME-3M melanoma): 20.1 µM
- TGI (MALME-3M melanoma): 46.5 µM
- GI50 (RXF 393 renal): 2490 nM
- TGI (RXF 393 renal): 9.37 µM
- GI50 (LOX IMVI melanoma): 21.1 µM
- TGI (LOX IMVI melanoma): > 100 µM
- GI50 (OVCAR-4 ovarian): 65.3 µM
- TGI (OVCAR-4 ovarian): > 100 µM
- GI50 (MCF7 breast): 5.45 µM
- TGI (MCF7 breast): > 100 µM
- GI50 (HCC-2998 colon): 25.2 µM
- TGI (HCC-2998 colon): > 100 µM
- GI50 (SK-MEL-5 melanoma): 10.5 µM
- TGI (SK-MEL-5 melanoma): 40 µM
- GI50 (IGROV1 ovarian): 22.6 µM
- TGI (IGROV1 ovarian): > 100 µM
- GI50 (K-562 leukemia): 9.94 µM
- TGI (K-562 leukemia): > 100 µM
- GI50 (HOP-92 NSCLC): 7.24 µM
- TGI (HOP-92 NSCLC): 46.5 µM
- GI50 (DU-145 prostate): 55.9 µM
- TGI (DU-145 prostate): > 100 µM
- GI50 (BT-549 breast): 13.5 µM
- TGI (BT-549 breast): > 100 µM
- GI50 (SK-MEL-2 melanoma): 25.2 µM
- TGI (SK-MEL-2 melanoma): > 100 µM
- GI50 (A549 NSCLC): 10.9 µM
- TGI (A549 NSCLC): > 100 µM
- GI50 (TK-10 renal): 48.6 µM
- TGI (TK-10 renal): > 100 µM
- GI50 (UO-31 renal): 9.52 µM
- TGI (UO-31 renal): > 100 µM
